Measured values: ChEMBL document CHEMBL4130577, “Platanic acid: A new scaffold for the synthesis of cytotoxic agents” (Eur J Med Chem, 2018)
pEC50: −log10 of the molar value. Active and inactive are the calls of the source. No cut-off for these calls is given here.

Key:
[1] = tested on: 518A2; test: Cytotoxicity against human 518A2 cells after 96 hrs by SRB assay; format: functional, cell-based; conditions: 518A2, 96 h
[2] = tested on: A2780; test: Cytotoxicity against human A2780 cells after 96 hrs by SRB assay; format: functional, cell-based; conditions: A2780, 96 h
[3] = tested on: MCF7; test: Cytotoxicity against human MCF7 cells after 96 hrs by SRB assay; format: functional, cell-based; conditions: MCF7, 96 h
[4] = tested on: A549; test: Cytotoxicity against human A549 cells after 96 hrs by SRB assay; format: functional, cell-based; conditions: A549, 96 h
[5] = tested on: NIH3T3; test: Cytotoxicity against mouse NIH/3T3 cells after 96 hrs by SRB assay; format: cell-based; conditions: NIH3T3, 96 h
[6] = tested on: A2780; test: Cytotoxicity against human A2780 cells assessed as morphological changes at 5 uM after 24 hrs by acridine orange/propidium iodide staining based fluorescence microscopic method; format: functional, cell-based
[7] = tested on: A2780; test: Induction of apoptosis in human A2780 cells assessed as early apoptotic cells at 5 uM after 24 hrs by Annexin V-FITC/propidium iodide staining based flow cytometry (reference value: 3.5%); format: functional
[8] = tested on: A2780; test: Induction of apoptosis in human A2780 cells assessed as late apoptotic cells at 5 uM after 24 hrs by Annexin V-FITC/propidium iodide staining based flow cytometry (reference value: 6.6%); format: functional
[9] = tested on: A2780; test: Induction of apoptosis in human A2780 cells assessed as necrotic cells at 5 uM after 24 hrs by Annexin V-FITC/propidium iodide staining based flow cytometry (reference value: 1.1%); format: functional
[10] = tested on: A2780; test: Induction of apoptosis in human A2780 cells assessed as live cells at 5 uM after 24 hrs by Annexin V-FITC/propidium iodide staining based flow cytometry (reference value: 88.7%); format: functional
[11] = tested on: A2780; test: Cell cycle arrest in human A2780 cells at 5 uM after 24 hrs by propidium iodide staining based flow cytometry; format: functional
[12] = tested on: A2780; test: Induction of apoptosis in human A2780 cells assessed as increase in caspase-3 activity at 5 uM after 24 hrs by flow cytometry; format: functional, cell-based
[13] = tested on: HT-29; test: cells; conditions: Homo sapiens, HT-29, 96 h
Description: Cytotoxicity against human HT-29 cells after 96 hrs by SRB assay

[14] = tested on: A2780; test: Cytotoxicity against human A2780 cells assessed as morphological changes at 8 uM after 24 hrs by acridine orange/propidium iodide staining based fluorescence microscopic method; format: functional, cell-based
[15] = tested on: A2780; test: Induction of apoptosis in human A2780 cells assessed as early apoptotic cells at 8 uM after 24 hrs by Annexin V-FITC/propidium iodide staining based flow cytometry (reference value: 3.5%); format: functional
[16] = tested on: A2780; test: Induction of apoptosis in human A2780 cells assessed as late apoptotic cells at 8 uM after 24 hrs by Annexin V-FITC/propidium iodide staining based flow cytometry (reference value: 6.6%); format: functional
[17] = tested on: A2780; test: Induction of apoptosis in human A2780 cells assessed as necrotic cells at 8 uM after 24 hrs by Annexin V-FITC/propidium iodide staining based flow cytometry (reference value: 1.1%); format: functional
[18] = tested on: A2780; test: Induction of apoptosis in human A2780 cells assessed as live cells at 8 uM after 24 hrs by Annexin V-FITC/propidium iodide staining based flow cytometry (reference value: 88.7%); format: functional
[19] = tested on: A2780; test: Cell cycle arrest in human A2780 cells at 8 uM after 24 hrs by propidium iodide staining based flow cytometry; format: functional
[20] = tested on: A2780; test: Induction of apoptosis in human A2780 cells assessed as increase in caspase-3 activity at 8 uM after 24 hrs by flow cytometry; format: functional, cell-based

Compound	pEC50 [1]	pEC50 [2]	pEC50 [3]	pEC50 [4]	pEC50 [5]	Activity [6]	Activity [7]	Activity [8]	Activity [9]	Activity [10]	Activity [11]	Activity [12]	pEC50 [13]	Activity [14]	Activity [15]	Activity [16]	Activity [17]	Activity [18]	Activity [19]	Activity [20]
CC(=O)[C@@H]1CC[C@]2(C(=O)NCCN3CCCC3)CC[C@]3(C)[C@H](CC[C@@H]4[C@@]5(C)CC[C@H](O)C(C)(C)[C@@H]5CC[C@]43C)[C@@H]12	5.60	5.66	5.68	5.64	5.55	Active	7.1%	47.4%	4.2%	41.3%	inactive	Active	5.55							
COC(=O)[C@]12CC[C@@H]([C@@H](C)N)[C@@H]1[C@H]1CC[C@@H]3[C@@]4(C)CC[C@H](OC(C)=O)C(C)(C)[C@@H]4CC[C@@]3(C)[C@]1(C)CC2	5.39	5.33	5.29	5.28	5.25								5.20	Active	23.7%	16.6%	1.4%	58.1%	inactive	Active
COC(=O)[C@]12CC[C@@H](/C(C)=N\O)[C@@H]1[C@H]1CC[C@@H]3[C@@]4(C)CC[C@H](OC(C)=O)C(C)(C)[C@@H]4CC[C@@]3(C)[C@]1(C)CC2	5.01	4.89	4.92	5.06	4.91								4.89							
C[C@@H](N)[C@@H]1CC[C@]2(C(=O)OCc3ccccc3)CC[C@]3(C)[C@H](CC[C@@H]4[C@@]5(C)CC[C@H](O)C(C)(C)[C@@H]5CC[C@]43C)[C@@H]12	5.12	5.12	5.25	5.00	5.14								5.30							
CC(=O)O[C@H]1CC[C@]2(C)[C@H]3CC[C@@H]4[C@H]5[C@H](/C(C)=N\O)CC[C@]5(C(=O)OCc5ccccc5)CC[C@@]4(C)[C@]3(C)CC[C@H]2C1(C)C	4.78	5.00	5.14	4.95	4.85								4.70							
CC(=O)[C@@H]1CC[C@]2(C(=O)OCc3ccccc3)CC[C@]3(C)[C@H](CC[C@@H]4[C@@]5(C)CC[C@@H](N)C(C)(C)[C@@H]5CC[C@]43C)[C@@H]12	5.64	5.55	5.72	5.44	5.60								5.62							
CC(=O)O[C@H]1CC[C@]2(C)[C@H]3CC[C@@H]4[C@H]5[C@H]([C@H](C)N)CC[C@]5(C(=O)OCc5ccccc5)CC[C@@]4(C)[C@]3(C)CC[C@H]2C1(C)C	5.60	5.64	5.89	5.48	5.70								5.89							
CC(=O)OC[C@]12CC[C@@H]([C@@H](C)N)[C@@H]1[C@H]1CC[C@@H]3[C@@]4(C)CC[C@H](OC(C)=O)C(C)(C)[C@@H]4CC[C@@]3(C)[C@]1(C)CC2	5.66	5.60	5.68	5.64	5.40								5.92							
